Measurements as given in US20110212185A1, “WATER THAT EXPRESSES PATHOGEN-RESISTANCE GENES (PR GENE CLUSTERS) TO ENCODE PLANT IMMUNOPROTEINS, A METHOD OF PREVENTING PLANT DISEASES USING THE WATER, AND A DEVICE FOR PRODUCING THE WATER” (priority 2008, published 2011).

What was measured:
[1] = tested on: plant body or plant cells; details: supplied directly to plant body or plant cells; 'or more'; cited from earlier work
[2] = tested on: carp; details: data sheet of Hokho lateral-row Oryzemate granular wettable powder; cited from earlier work
[3] = CLA chemiluminescence measurement of superoxide anion radicals in water; format: physicochemical; details: KO2 marker in FIG. 4; extinguished within several milliseconds
Method: The measurement of the superoxide anion radicals in water is performed in the following manner. […] Further, timings for collecting samples are set to immediately before the starting of reaction, 15 minutes after the start of reaction, and 30 minutes after the starting of reaction. At respective timings, 500 μl of aqueous solution in the reservoir is sampled using a micropipette and is added to 500 μl of 25 mM phosphoric acid potassium buffer solution (pH7.0) to which CLA is preliminarily added (1:1 mixture, total: 1 ml) and CLA luminescence is measured for 5 minutes after dropping the solution. The intensity of luminescence is indicated by relative luminescence unit (hereinafter referred to as rlu). […] Further, KO2 solution obtained by dissolving KO2 (potassium superoxide) in an organic solvent is added to CLA solution thus preparing a calibration curve of superoxide anion by chemiluminescence dependent on CLA. Generally, a method which dissolves KO2 in crown-ether-based organic solution and uses the solution for the determination of superoxide is used. However, to allow the reaction with CLA in aqueous solution in a non-hydrophobic environment, dimethylsulfoxide (DMSO) is used as organic solvent. Using this method, CLA luminescence by adding KO2 solution is induced whereby the calibration curve of superoxide anion radicals is prepared.

Compound	concentration necessary to actually confirm the expression of the genes [1] [mM]	further results
O=C(O)c1ccccc1O [salicylic acid]	0.1 to 0.5	–
OO [hydrogen peroxide]	2 to 10	–
C=CCOC1=NS(=O)(=O)c2ccccc21 [probenazole]	–	LC50 value (48 hours) for carp [2]: 8 ppm
Potassium superoxide [KO2]	–	time for which emission of light is observed after dropping into water [3]: < 2 s
